Patent publication US10995068B2, “Synthetic sphingolipid-like molecules, drugs, methods of their synthesis and methods of treatment” (The Regents of the University of California, priority 2015, dated 2021)

Experiments:
[1] = molecular target: T1, S1P receptor 2 (Homo sapiens, UniProt O95136); assay: S1P receptor activation in CHO cells, S1P2; assay type: cell-based; details: CHO cells over-expressing human S1P2
T1 construct: expressed in transfected cells
Procedure, shortened: (§1)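 CHO cells stably overexpressing each human S1P receptor subtype, serum-starved 24 h, then stimulated 10 min in serum-free DMEM with 0.1 mg/ml fatty-acid-free BSA ± compounds or S1P. Lysates analysed by Western blot for phospho-Thr202/Tyr204-p42/p44-MAPK and phospho-Ser PKC substrate, normalised to total p42/p44.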

[2] = molecular target: T2, S1P receptor 1 (Homo sapiens, UniProt P21453); assay: S1P receptor activation in CHO cells, S1P1; assay type: cell-based; details: CHO cells over-expressing human S1P1, 10 min stimulation, Western blot
T2 construct: expressed in transfected cells
T2 sequence (P21453 whole entry): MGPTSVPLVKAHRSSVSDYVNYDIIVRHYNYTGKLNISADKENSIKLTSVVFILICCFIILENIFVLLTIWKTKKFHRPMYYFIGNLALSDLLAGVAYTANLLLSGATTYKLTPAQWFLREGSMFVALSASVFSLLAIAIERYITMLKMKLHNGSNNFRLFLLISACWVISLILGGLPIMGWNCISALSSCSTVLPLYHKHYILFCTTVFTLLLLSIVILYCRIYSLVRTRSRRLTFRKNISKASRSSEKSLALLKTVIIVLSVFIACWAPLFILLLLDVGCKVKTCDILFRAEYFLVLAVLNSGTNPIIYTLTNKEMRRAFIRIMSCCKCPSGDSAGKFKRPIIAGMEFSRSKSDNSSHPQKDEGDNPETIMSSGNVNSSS
Procedure, shortened: as §1

[3] = molecular target: T3, S1P receptor 4 (Homo sapiens, UniProt O95977); assay: S1P receptor activation in CHO cells, S1P4; assay type: cell-based; details: CHO cells over-expressing human S1P4
T3 construct: expressed in transfected cells
T3 sequence (O95977 1-384): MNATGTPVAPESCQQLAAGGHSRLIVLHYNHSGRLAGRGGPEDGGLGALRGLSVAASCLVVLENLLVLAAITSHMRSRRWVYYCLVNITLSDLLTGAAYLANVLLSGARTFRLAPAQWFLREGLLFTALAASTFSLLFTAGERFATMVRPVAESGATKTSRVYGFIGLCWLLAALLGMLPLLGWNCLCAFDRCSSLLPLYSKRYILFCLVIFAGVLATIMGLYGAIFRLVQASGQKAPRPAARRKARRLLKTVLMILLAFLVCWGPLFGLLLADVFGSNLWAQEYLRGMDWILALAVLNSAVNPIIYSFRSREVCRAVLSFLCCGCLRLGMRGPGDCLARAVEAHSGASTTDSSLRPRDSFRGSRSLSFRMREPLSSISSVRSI
Procedure, shortened: as §1

[4] = molecular target: T4, S1P receptor 5 (Homo sapiens, UniProt Q9H228); assay: S1P receptor activation in CHO cells, S1P5; assay type: cell-based; details: CHO cells over-expressing human S1P5
T4 construct: expressed in transfected cells
T4 sequence (Q9H228 whole entry): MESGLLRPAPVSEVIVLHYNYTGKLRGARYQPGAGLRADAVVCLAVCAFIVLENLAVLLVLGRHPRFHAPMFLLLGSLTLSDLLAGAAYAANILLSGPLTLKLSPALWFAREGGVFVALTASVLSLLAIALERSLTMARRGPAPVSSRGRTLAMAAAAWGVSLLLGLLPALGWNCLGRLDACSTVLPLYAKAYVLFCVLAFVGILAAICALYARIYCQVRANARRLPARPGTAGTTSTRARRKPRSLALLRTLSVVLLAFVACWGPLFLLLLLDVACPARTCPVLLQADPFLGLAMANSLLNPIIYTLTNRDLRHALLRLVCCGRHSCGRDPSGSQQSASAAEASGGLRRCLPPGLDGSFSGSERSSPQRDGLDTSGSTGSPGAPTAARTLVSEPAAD
Procedure, shortened: as §1

[5] = tested on: luciferase-expressing SW620 xenografts; assay: Luciferase-expressing SW620 xenografts treated with SH-BC-893; assay type: in vivo, mice; details: for SW620 tumors by bioluminescence imaging, caliper measurements and tumor mass at sacrifice: luciferase-expressing SW620 xenografts in mice, SH-BC-893 20 mg/kg i.p.
Method: In many embodiments, exemplary experimentation was carried out to determine whether azacyclic constrained sphingolipid-lipid molecules inhibited neoplastic growth in vivo. To carry out this experimentation, luciferase-expressing SW620 xenografts were generated in mice.
In vivo studies. Experiments conducted in mice were performed in accordance with the Institutional Animal Care and Use Committee of University of California, Irvine following a power analysis conducted in consultation with the Biostatistics Shared Resource of Chao Family Comprehensive Cancer Center at UCI. Xenografts were produced by injecting 5 million cells subcutaneously in the flank of 10-16 week-old male or female NSG mice. Prostate isografts were produced in the same manner but in male 6-8 wk old C57BL/6 mice. Once tumors reached 100 mm^3, SH-BC-893 was administered by intraperitoneal (i.p.) injection or oral gavage as indicated. Tumor volume was calculated using the formula, volume (mm^3)=length [mm]×(width [mm])^2×0.52; BLI was measured using an IVIS imaging system (Xenogen). To generate pDKO mice on the C57BL6 background, Pten^flox mice (stock No. 0045597) and p53^flox mice (stock No. 008462) were obtained from the Jackson Laboratory and PB-Cre4 mice (strain #01XF5) were obtained from the NCI-Frederick Mouse Repository. Age-matched cohorts of pDKO males were generated by in vitro fertilization executed with the assistance of the Transgenic Mouse Facility at UC Irvine. Treatment was begun at 6-7 wks of age. […] Tumor samples were processed and imaged by the Pathology Research Services Core Facility at UC Irvine. Blood chemistry was analyzed by IDEXX BioResearch and complete blood counts were performed using a Hemavet hematology system.

T1 sequence (O95136 whole entry): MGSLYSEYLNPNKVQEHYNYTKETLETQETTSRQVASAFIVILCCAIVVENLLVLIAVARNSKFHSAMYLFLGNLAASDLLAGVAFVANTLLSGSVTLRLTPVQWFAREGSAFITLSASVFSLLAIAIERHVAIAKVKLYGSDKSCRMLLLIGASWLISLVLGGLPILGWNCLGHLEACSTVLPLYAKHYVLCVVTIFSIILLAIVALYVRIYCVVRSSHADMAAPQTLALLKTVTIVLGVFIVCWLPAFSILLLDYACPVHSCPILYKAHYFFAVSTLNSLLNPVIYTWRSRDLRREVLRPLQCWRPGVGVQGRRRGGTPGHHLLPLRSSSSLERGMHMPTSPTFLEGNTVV

| SMILES | activation of S1P receptor 2 [1] | activation of S1P receptor 1 [2] | activation of S1P receptor 4 [3] | activation of S1P receptor 5 [4] | body weight of treated mice ([5]; SW620 xenograft mice) | SW620 tumors by bioluminescence imaging, caliper measurements and tumor mass at sacrifice [5] |
| --- | --- | --- | --- | --- | --- | --- |
| CCCCCCCCc1ccc([C@H]2CCN[C@@H]2CO)cc1.Cl [Compound 5, (2S,3R)-2-(hydroxymethyl)-3-(4-octylphenyl)Pyrrolidinium chloride] | failed to activate | weakly activated | failed to activate | failed to activate | Mild weight loss | reduced to a similar degree |
| CCCCCCCCc1ccc([C@@H]2CCN[C@H]2CO)cc1.Cl [Compound 6] | failed to activate | weakly activated | failed to activate | failed to activate | – | – |
| CCCCCCCCc1ccc(CCC(N)(CO)CO)cc1.Cl [FTY720, 2-Amino-2-[2-(4-octylphenyl)ethyl]propane 1,3-diol hydrochloride, reference compound] | – | – | – | – | – | reduced to a similar degree |
